Reference: patent US7517889B2, “2,6-substituted-4-monosubstitutedamino-pyrimidine as prostaglandin D2 receptor antagonists” (Aventis Pharmaceuticals, Inc., priority 2004, dated 2009)
Where a name gives a salt, the structure may show the parent alone.

Molecular target: T1, DP receptor (Homo sapiens, UniProt Q13258)
T1 construct: the human cell line LS174T, which expresses the endogenous DP receptor; endogenous in cells; host or cells: LS174T human cell line
T1 sequence (Q13258 1-359): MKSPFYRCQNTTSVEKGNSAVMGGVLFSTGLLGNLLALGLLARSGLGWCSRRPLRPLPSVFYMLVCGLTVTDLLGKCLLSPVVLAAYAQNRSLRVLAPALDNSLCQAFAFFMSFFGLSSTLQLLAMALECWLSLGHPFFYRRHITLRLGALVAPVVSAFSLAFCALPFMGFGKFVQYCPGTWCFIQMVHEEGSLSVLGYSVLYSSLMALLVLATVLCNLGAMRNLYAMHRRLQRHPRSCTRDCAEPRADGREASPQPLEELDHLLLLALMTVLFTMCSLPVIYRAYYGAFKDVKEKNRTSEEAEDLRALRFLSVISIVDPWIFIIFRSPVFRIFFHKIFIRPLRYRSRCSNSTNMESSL
Assay: SPA cAMP assay in human LS174 T cells (human DP functional assay)
Type: cell-based
Details: inhibition of PGD2 (15 nM final) stimulated cAMP, LS174T cells expressing endogenous DP receptor
Procedure, shortened: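 LS174T cells with endogenous DP receptor, 45,000/well seeded overnight, exposed to compounds at 11 points for 15 min at 37 °C in buffer containing IBMX, with PGD2 stimulation.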

SMILES | IC50 [nM]
COc1cccc(-c2cc(NCCc3cccnc3)nc(OC)n2)c1 [Example 43(i), [2-Methoxy-6-(3-methoxy-phenyl)-pyrimidin-4-yl]-(2-pyridin-3-yl-ethyl)-amine hydrochloride] | 248
COc1nc(NCCc2ccc(OC(F)(F)F)cc2)cc(-c2cccc(N)c2)n1 [Example 5, [6-(3-amino-phenyl)-2-methoxy-pyrimidin-4-yl]-[2-(4-trifluoromethoxy-phenyl)-ethyl]-amine] | 9.6
COc1ccc(CCNc2cc(-c3cccc(C(=O)O)c3)nc(SC)n2)cc1OC [Example 16(b), 3-{6-[2-(3,4-Dimethoxy-phenyl)-ethylamino]-2-methylsulfanyl-pyrimidin-4-yl}-benzoic acid] | 243
COC(=O)c1cccc(Oc2cc(NCCc3ccc(OC)c(OC)c3)nc(OC)n2)c1 [Example (63), 3-{6-[2-(3,4-dimethoxy-phenyl)-ethylamino]-2-methoxy-pyrimidin-4-yloxy}-benzoic acid methyl ester] | 6250
COc1nc(NCCc2c(F)cccc2Cl)cc(-c2ccc(=O)n(Cc3n[nH]c(=O)o3)c2)n1 [Example 33, 5-{6-[2-(2-Chloro-6-fluoro-phenyl)-ethylamino]-2-methoxy-pyrimidin-4-yl}-1-(5-oxo-4,5-dihydro-[1,3,4]oxadiazol-2-ylmethyl)-1H-pyridin-2-one] | 1.2
COCC(=O)NCCc1cccc(-c2cc(NCCc3ccc(C(F)(F)F)cc3F)nc(OC)n2)c1 [Example 64, N-[2-(3-{6-[2-(2-Fluoro-4-trifluoromethyl-phenyl)-ethylamino]-2-methoxy-pyrimidin-4-yl}-phenyl)-ethyl]-2-methoxy-acetamide] | 56
CCNC(=O)Oc1cccc(-c2cc(NCCc3ccc(Cl)cc3Cl)nc(OC)n2)c1 [Example 60, Ethyl-carbamic acid 3-{6-[2-(2,4-dichloro-phenyl)-ethylamino]-2-methoxy-pyrimidin-4-yl}-phenyl ester] | 0.5
COc1nc(NCCc2ccc(Cl)cc2Cl)cc(-c2cccc(OCC#N)c2)n1 [Example 22(e), (3-{6-[2-(2,4-Dichloro-phenyl)-ethylamino]-2-methoxy-pyrimidin-4-yl}-phenoxy)-acetonitrile] | 0.4
COc1nc(NCCc2ccc(Cl)cc2Cl)cc(-c2cccc(C(C)C(=O)O)c2)n1 (stereo not drawn) [Example 49(a), 2-(3-{6-[2-(2,4-Dichloro-phenyl)-ethylamino]-2-methoxy-pyrimidin-4-yl}-phenyl)-propionic acid hydrochloride] | 1
COc1nc(NCCc2c(F)cccc2Cl)cc(-c2ccc(=O)n(CC(=O)O)c2)n1 [Example 23(c), (5-{6-[2-(2-Chloro-6-fluoro-phenyl)-ethylamino]-2-methoxy-pyrimidin-4-yl}-2-oxo-2H-pyridin-1-yl)-acetic acid] | 0.3
COc1ccc(CCNc2cc(-c3cccc(S(N)(=O)=O)c3)nc(OC)n2)cc1 [Example 3, 3-{2-Methoxy-6-[2-(4-methoxy-phenyl)-ethylamino]-pyrimidin-4-yl}-benzenesulfonamide] | 2.9
COc1nc(NCCc2ccc3c(c2)OC(F)(F)O3)cc(-c2cccnc2)n1 [Example 46(b), [2-(2,2-difluoro-benzo[1,3]dioxol-5-yl)-ethyl]-(2-methoxy-6-pyridin-3-yl-pyrimidin-4-yl)-amine] | 212
COc1nc(NCCc2ccc(Cl)cc2Cl)cc(-c2cccc(C(C)(C)C(=O)OCC(O)CO)c2)n1 (stereo not drawn) [Example 89, 2-(3-{6-[2-(2,4-Dichloro-phenyl)-ethylamino]-2-methoxy-pyrimidin-4-yl}-phenyl)-2-methyl-propionic acid 2,3-dihydroxy-propyl ester] | 18
COc1ccc(CCNc2cc(-c3cnc4ccccc4c3)nc(OC)n2)cc1 [Example 10(b), [2-(4-Methoxy-phenyl)-ethyl]-(2-methoxy-6-quinolin-3-yl-pyrimidin-4-yl)-amine] | 0.7
COc1nc(NCCc2ccc(Cl)cc2)cc(-c2cccc(C(=O)O)c2)n1 [Example 35(n), 3-{6-[2-(4-chlorophenyl)-ethylamino]-2-methoxy-pyrimidin-4-yl}-benzoic acid hydrochloride] | 0.6
COc1nc(NCC2OCCc3ccccc32)cc(-c2cccc(C(C)(C)C(=O)O)c2)n1 (stereo not drawn) [Example 91, 2-(3-{6-[(Isochroman-1-ylmethyl)-amino]-2-methoxy-pyrimidin-4-yl}-phenyl)-2-methyl-propionic acid] | 23
COc1cccc(-c2cc(NCCc3ccc([N+](=O)[O-])cc3)nc(OC)n2)c1 [Example 43(b), [2-Methoxy-6-(3-methoxy-phenyl)-pyrimidin-4-yl]-[2-(4-nitro-phenyl)-ethyl]-amine] | 0.9
COc1nc(NCCc2ccc(Cl)cc2Cl)cc(-c2ccc3nc(NC(C)=O)sc3c2)n1 [Example 94, N-(6-{6-[2-(2,4-Dichloro-phenyl)-ethylamino]-2-methoxy-pyrimidin-4-yl}-benzothiazol-2-yl)-acetamide] | 11
COc1nc(NCCc2ccc(Cl)cc2Cl)cc(-c2cccc(C(=O)NCC(=O)O)c2)n1 [Example 59, (3-{6-[2-(2,4-Dichloro-phenyl)-ethylamino]-2-methoxy-pyrimidin-4-yl}-benzoylamino)-acetic acid] | 0.8
COc1nc(NCCc2ccc(Cl)cc2Cl)cc(N2CCCC(C(=O)O)C2)n1 (stereo not drawn) [Example 73, 1-{6-[2-(2,4-Dichloro-phenyl)-ethylamino]-2-methoxy-pyrimidin-4-yl}-piperidine-3-carboxylic acid] | 0.8
COc1nc(NCCc2ccc(OC)c(OC)c2)cc(-c2cccc(C(=O)NCCN3CCCC3)c2)n1 [Example 25(b), 3-{6-[2-(3,4-Dimethoxy-phenyl)-ethylamino]-2-methoxy-pyrimidin-4-yl}-N-(2-pyrrolidin-1-yl-ethyl)-benzamide] | 30
COc1ccc(CCNc2cc(-c3cccc(C#N)c3)nc(OC)n2)cc1 [Example 35(t), 3-{2-Methoxy-6-[2-(4-methoxy-phenyl)-ethylamino]-pyrimidin-4-yl}-benzonitrile] | 0.9
COc1nc(NCCc2ccc(F)cc2F)cc(-c2cccc(C(=O)O)c2)n1 [Example 7, 3-{6-[2-(2,4-Difluoro-phenyl)-ethylamino]-2-methoxy-pyrimidin-4-yl}-benzoic acid] | 0.8
COc1cccc(-c2cc(NCCc3c[nH]c4cc(OC)ccc34)nc(OC)n2)c1 [Example 43(g), [2-(6-Methoxy-1H-indol-3-yl)-ethyl]-[2-methoxy-6-(3-methoxy-phenyl)-pyrimidin-4-yl]-amine hydrochloride] | 104
COc1nc(NCCc2ccc(OC(F)F)cc2)cc(-c2cccc(NC(C)=O)c2)n1 [Example 46(c), N-(3-{6-[2-(4-Difluoromethoxy-phenyl)-ethylamino]-2-methoxy-pyrimidin-4-yl}-phenyl)-acetamide hydrochloride] | 4
COc1ccc(CCNc2cc(-c3cccnc3)nc(OC)n2)cc1 [Example 35(x), [2-methoxy-(6-pyridin-3-yl)-pyrimidin-4-yl]-[2-(4-methoxy-phenyl)-ethyl]-amine] | 10
COc1nc(NCC(F)(F)c2ccccc2)cc(-c2cccc(C(C)(C)C(=O)O)c2)n1 [Example 67, 2-{3-[6-(2,2-Difluoro-2-phenyl-ethylamino)-2-methoxy-pyrimidin-4-yl]-phenyl}-2-methyl-propionic acid] | 38
